Series [1] deals with T1, human Plasma Kallikrein (Homo sapiens (Human), UniProt P03952). Description: In vitro enzyme inhibition of human plasma kallikrein (Pro-Phe-Arg-AMC cleavage). The series is classed as biochemical. Conditions: human plasma kallikrein, PFR-AMC substrate, 37° C.; read-out: hPK IC50. The essentials: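 Human plasma kallikrein preincubated 5 min at 37 °C with compound in 50 mM Tris-HCl pH 7.5, 150 mM NaCl, 0.01% Triton X-100. Reaction started with Pro-Phe-Arg-AMC, fluorescence read every 43 s for 1 h at 37 °C. IC50 from highest mean velocity over 20 reads (~15 min).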
T1 sequence (P03952 391-638 limits assumed): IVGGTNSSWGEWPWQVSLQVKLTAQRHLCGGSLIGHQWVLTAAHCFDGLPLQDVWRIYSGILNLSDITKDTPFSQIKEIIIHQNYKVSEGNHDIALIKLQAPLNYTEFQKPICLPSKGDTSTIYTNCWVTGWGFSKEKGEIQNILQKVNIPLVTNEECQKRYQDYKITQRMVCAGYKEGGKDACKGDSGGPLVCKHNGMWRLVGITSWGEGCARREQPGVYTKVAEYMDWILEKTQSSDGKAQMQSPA
T1 sequence (P03952 20-390 partner limits assumed): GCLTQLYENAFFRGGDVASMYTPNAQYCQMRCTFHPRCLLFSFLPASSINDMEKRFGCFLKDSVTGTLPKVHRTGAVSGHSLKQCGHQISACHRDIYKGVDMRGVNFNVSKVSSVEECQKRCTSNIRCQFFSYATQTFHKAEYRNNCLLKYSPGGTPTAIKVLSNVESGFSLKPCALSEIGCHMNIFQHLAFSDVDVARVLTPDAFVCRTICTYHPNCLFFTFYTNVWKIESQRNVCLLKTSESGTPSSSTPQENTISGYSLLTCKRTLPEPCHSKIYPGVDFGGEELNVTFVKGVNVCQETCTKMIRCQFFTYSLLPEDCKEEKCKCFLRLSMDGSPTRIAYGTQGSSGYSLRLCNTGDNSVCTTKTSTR

Series [2] addresses T1, human Plasma Kallikrein. The experiment in a line: Human whole blood kallikrein inhibition (ellagic acid-activated human plasma, Z-FR-2-AMC substrate). The class given is biochemical. On the procedure:
The ability of the compounds disclosed herein to inhibit human plasma kallikrein activity was quantified according to the procedures below.
All dilutions were prepared in an assay buffer comprising 50 mM Tris-HCl pH 7.2, 150 mM NaCl, and 0.01% Triton X-100.
Human plasma was thawed on ice and centrifuged for 15 min at 4° C. to remove platelets. A 1 mM stock solution of ellagic acid was diluted to 8 μM and mixed with human plasma, after removing platelets, at a ratio of 1:0.8. The mixture of human plasma and ellagic acid was further diluted 32-fold in the assay buffer, to yield the final mixture for use in the inhibition assay.
A 22.5 μL volume of the final mixture of human plasma and ellagic acid was added to a 96-well microwell plate and the plate was incubated for 15 min at 37° C.
The test compound solution was prepared to provide final concentrations of 20 μM, 5 μM, 1.25 μM, 312.5 nM, 78.125 nM, 19.531 nM, 4.883 nM, 1.221 nM, 0.305 nM, and 0.076 nM. Each test compound concentration was tested in duplicates.
In addition to the inhibitor control and test wells, the 96 well assay plate included positive control wells which contain the mixture of human plasma and ellagic acid without test compounds, and background wells which contain neither the mixture of human plasma and ellagic acid nor the test compounds. The total volume of liquid in positive control and background wells was brought up to 35 μL using the assay buffer.
The assay plate containing test compounds mixed with human plasma and ellagic acid and appropriate controls was incubated at 37° C. for 5 min. A 10 mM stock solution of substrate Z-FR-2-AMC was diluted to 133.2 μM in the assay buffer, and 15 μL of the diluted substrate was added to each well, to yield a final substrate concentration of 40 μM in each well. The reagents were mixed by shaking the plate gently for 30 sec.
The enzyme reaction was quantified by immediate kinetic reading of the assay plate using excitation/emission wavelengths of 330 nm/440 nm respectively. Fluorescence intensity was recorded for 60 min, using a time interval of 43 sec.
The inhibition activity of the test compounds were evaluated using the IC50 values, calculated according to the dose-response curve of the test compounds, fitted using the “log(inhibitor)−response(variable slope)” equation in GraphPadPrism software (GraphPad Software, Inc.).
The percentage inhibition (EC50) was calculated using the following equation:
[formula] where, Mean(BG) is the average value of the fluorescence intensity of the background wells and Mean(PC) is the average value of the fluorescence intensity of the positive control wells.

A short description of series [3]: Pharmacokinetic evaluation, oral exposure in rats. The note with it: male Sprague-Dawley rats, single oral dose 10 mg/kg via oral gavage, plasma. The class given is in vivo. On the procedure: Pharmacokinetic studies of select compounds were performed to assess the pharmacokinetic properties. Male Sprague-Dawley rats were administered a single oral dose of the test compound at 10 mg/kg (dose concentration: 2 mg/mL, dose volume: 5 ml/kg) via oral gavage. Blood samples were collected via jugular vein at pre-dose, post-dose 5 min, 15 min, 30 min, 1 h, 2 h, 4 h, 6 h, 8 h, 10 h and 24 h, and centrifuged (8000 rpm for 6 minutes at 2-8° C.). The resulting plasma fractions were analyzed by LC/MS/MS to determine the concentration of the test compound.

Where [4] appears, read: human plasma activated with ellagic acid, Z-FR-2-AMC 40 μM, 37° C., read-out: HWB EC50.

pEC50, pIC50: −log10 of the molar value. Like-named read-outs stand apart in the source and are kept apart here.

This is an account of results in patent publication US10301284B2, “Therapeutic inhibitory compounds” (LifeSci Pharmaceuticals, Inc., priority 2016, dated 2019).

Usually pIC50 stands for the negative decadic logarithm of the IC50, by convention in mol/L. One may read the pEC50 as −log10 of the EC50, conventionally taken in molar units. A word on the AUC: it is concentration integrated over time. For `Cc1cc(N)nc(C)c1CNC(=O)c1cn(Cc2ccc3ncc(Cl)cc3c2)c2ccncc12` [Example 35, N-((6-amino-2,4-dimethylpyridin-3-yl)methyl)-1-((3-chloroquinolin-6-yl)methyl)-1H-pyrrolo[3,2-c]pyridine-3-carboxamide], the pIC50 in series [1] was over 7.00. In series [2], this compound showed a pEC50 of over 7.00. In addition, the AUC result in series [3] was “BLQ”.
With `Cc1cc(N)nc(C)c1CNC(=O)c1coc(Cc2ccc3ncc(Cl)cc3c2)n1` [Example 29, N-((6-amino-2,4-dimethylpyridin-3-yl)methyl)-2-((3-chloroquinolin-6-yl)methyl)oxazole-4-carboxamide], in series [1], the pIC50 was over 7.00. For the same compound, the pEC50 in series [2] (setting [4]) is over 7.00. For the same compound, the AUC in series [3] (rat, read-out: AUC) fell in the range of 1000 to 10000 ng·h/mL.
With `Cc1cc(N)nc(C)c1CNC(=O)c1nnc(Cc2ccc3ncc(Cl)cc3c2)[nH]1` [Example 96, N-((6-amino-2,4-dimethylpyridin-3-yl)methyl)-5-((3-chloroquinolin-6-yl)methyl)-4H-1,2,4-triazole-3-carboxamide], the pIC50 in series [1] was over 7.00. Moreover, the pEC50 in series [2] (setting [4]) is over 7.00. Also, in series [3] (rat, read-out: AUC), the AUC was over 10000 ng·h/mL.
Consider `Cc1cnc2c(S(C)(=O)=O)cc(Cn3cc(C(=O)NCc4c(C)cc(N)nc4C)c(C#N)n3)cc2c1` [Example 61, N-((6-amino-2,4-dimethylpyridin-3-yl)methyl)-3-cyano-1-((3-methyl-8-(methylsulfonyl)quinolin-6-yl)methyl)-1H-pyrazole-4-carboxamide], for which, in series [1], the negative logarithm of the IC50 (pIC50) was over 7.00. The pEC50 in series [2] (setting [4]) was over 7.00. In addition, the AUC in series [3] (rat, read-out: AUC) was under 100 ng·h/mL.
With `Cc1cc(N)nc(C)c1CNC(=O)c1nc(Cc2ccc3ncc(Cl)cc3c2)n2ccccc12` [Example 9, N-((6-amino-2,4-dimethylpyridin-3-yl)methyl)-3-((3-chloroquinolin-6-yl)methyl)imidazo[1,5-a]pyridine-1-carboxamide], the pIC50 in series [1] is over 7.00. The pEC50 in series [2] (setting [4]) is over 7.00. The AUC in series [3] (rat, read-out: AUC) is 100 to 1000 ng·h/mL.
As to `Cc1cc(N)nc(C)c1CNC(=O)c1ncn(Cc2ccc3ncc(Cl)cc3c2)n1` [Example 4, N-((6-amino-2,4-dimethylpyridin-3-yl)methyl)-1-((3-chloroquinolin-6-yl)methyl)-1H-1,2,4-triazole-3-carboxamide], the pIC50 in series [1] is over 7.00. In addition, in series [2] (setting [4]), the negative logarithm of the EC50 (pEC50) is over 7.00. Further, the AUC in series [3] (rat, read-out: AUC) was under 100 ng·h/mL.
For `N#Cc1nn(Cc2cc(F)c3ncc(Cl)cc3c2)cc1C(=O)NCc1ccc2c(N)nccc2c1` [Example 54, N-((1-aminoisoquinolin-6-yl)methyl)-1-((3-chloro-8-fluoroquinolin-6-yl)methyl)-3-cyano-1H-pyrazole-4-carboxamide], in series [1], the pIC50 is over 7.00. Besides, the pEC50 in series [2] (setting [4]) was over 7.00. Also, the AUC in series [3] (rat, read-out: AUC) was under 100 ng·h/mL.
Turning to `Cc1cc(N)nc(C)c1CNC(=O)c1nn(Cc2ccc3ncc(Cl)cc3c2)cc1C#N` [Example 36, N-((6-amino-2,4-dimethylpyridin-3-yl)methyl)-1-((3-chloroquinolin-6-yl)methyl)-4-cyano-1H-pyrazole-3-carboxamide], the pIC50 in series [1] was over 7.00. In series [2] (setting [4]), the pEC50 is over 7.00. For the same compound, in series [3] (rat, read-out: AUC), the AUC was in the range of 100 to 1000 ng·h/mL.
Turning to `Cc1cc(N)nc(C)c1CNC(=O)c1nn(Cc2ccc3ncc(Cl)cc3c2)c2ccc(=O)[nH]c12` [Example 138, N-((6-amino-2,4-dimethylpyridin-3-yl)methyl)-1-((3-chloroquinolin-6-yl)methyl)-5-oxo-4,5-dihydro-1H-pyrazolo[4,3-b]pyridine-3-carboxamide], the pIC50 in series [1] was over 7.00. The pEC50 in series [2] is over 7.00. In series [3] (rat, read-out: AUC), the AUC was under 100 ng·h/mL.
As to `Cc1cc(N)nc(C)c1CNC(=O)c1nn(Cc2ccc3ncc(Cl)cc3c2)cc1C(F)(F)F` [Example 22, N-((6-amino-2,4-dimethylpyridin-3-yl)methyl)-1-((3-chloroquinolin-6-yl)methyl)-4-(trifluoromethyl)-1H-pyrazole-3-carboxamide], the pIC50 in series [1] was over 7.00. In addition, in series [2] (setting [4]), the pEC50 is over 7.00. In addition, in series [3] (rat, read-out: AUC), the AUC lay in the range of 100 to 1000 ng·h/mL.
Consider `Cc1cc(N)nc(C)c1CNC(=O)c1nc(Cc2ccc3ncc(Cl)cc3c2)no1` [Example 6, N-((6-amino-2,4-dimethylpyridin-3-yl)methyl)-3-((3-chloroquinolin-6-yl)methyl)-1,2,4-oxadiazole-5-carboxamide], for which, in series [1], the pIC50 was over 7.00. Further, in series [2] (setting [4]), the pEC50 is over 7.00. The area under the curve (AUC) in series [3] (rat, read-out: AUC) lay within 100 to 1000 ng·h/mL.
`Cc1cnc2c(C(N)=O)cc(Cn3cc(C(=O)NCc4c(C)cc(N)nc4C)c(C#N)n3)cc2c1` [Example 78, 6-((4-(((6-amino-2,4-dimethylpyridin-3-yl)methyl)carbamoyl)-3-cyano-1H-pyrazol-1-yl)methyl)-3-methylquinoline-8-carboxamide]: the pIC50 in series [1] was over 7.00. Moreover, in series [2] (setting [4]), the pEC50 is over 7.00. In addition, the AUC in series [3] (rat, read-out: AUC) was under 100 ng·h/mL.
For `CC(=O)Nc1cn(Cc2ccc3ncc(Cl)cc3c2)nc1C(=O)NCc1c(C)cc(N)nc1C` [Example 19, 4-acetamido-N-((6-amino-2,4-dimethylpyridin-3-yl)methyl)-1-((3-chloroquinolin-6-yl)methyl)-1H-pyrazole-3-carboxamide], the pIC50 in series [1] was over 7.00. The pEC50 in series [2] (setting [4]) is over 7.00. Moreover, the AUC in series [3] (rat, read-out: AUC) fell in the range of 100 to 1000 ng·h/mL.
For `Cc1cc(N)nc(C)c1CNC(=O)c1nn(Cc2ccc3ncc(Cl)cc3c2)nc1C#N` [Example 95, N-((6-amino-2,4-dimethylpyridin-3-yl)methyl)-2-((3-chloroquinolin-6-yl)methyl)-5-cyano-2H-1,2,3-triazole-4-carboxamide], the pIC50 in series [1] was over 7.00. Also, the pEC50 in series [2] (setting [4]) is over 7.00. The AUC in series [3] (rat, read-out: AUC) was 100 to 1000 ng·h/mL.
Regarding `COc1nn(Cc2ccc3ncc(Cl)cc3c2)cc1C(=O)NCc1c(C)cc(N)nc1C` [Example 39, N-((6-amino-2,4-dimethylpyridin-3-yl)methyl)-1-((3-chloroquinolin-6-yl)methyl)-3-methoxy-1H-pyrazole-4-carboxamide], the pIC50 in series [1] is over 7.00. For the same compound, the pEC50 in series [2] (setting [4]) was over 7.00. Also, the AUC in series [3] (rat, read-out: AUC) is 1000 to 10000 ng·h/mL.
As for `COc1cc2c(C(=O)NCc3c(C)cc(N)nc3C)nn(Cc3ccc4ncc(Cl)cc4c3)c2cn1` [Example 122, N-((6-amino-2,4-dimethylpyridin-3-yl)methyl)-1-((3-chloroquinolin-6-yl)methyl)-5-methoxy-1H-pyrazolo[3,4-c]pyridine-3-carboxamide], in series [1], the pIC50 was over 7.00. In series [2], this compound showed a pEC50 of over 7.00. For the same compound, the area under the curve (AUC) in series [3] (rat, read-out: AUC) was in the range of 100 to 1000 ng·h/mL.
For “4-amino-N-((6-amino-2,4-dimethylpyridin-3-yl)methyl)-1-((3-chloroquinolin-6-yl)methyl)-1H-pyrazole-3-carboxamide [Example 25]”, in series [1], the pIC50 was over 7.00. For the same compound, the pEC50 in series [2] (setting [4]) was over 7.00. Besides, the AUC entry in series [3] is reported as “C (>1000 ng · h/mL to ≤10,000 ng · h/mL)”.
`Cc1cc(N)nc(C)c1CNC(=O)c1cnc(Cc2ccc3ncc(Cl)cc3c2)o1` [Example 114, N-((6-amino-2,4-dimethylpyridin-3-yl)methyl)-2-((3-chloroquinolin-6-yl)methyl)oxazole-5-carboxamide]: in series [2] (setting [4]), the negative-log EC50 (pEC50) is over 7.00. The AUC in series [3] (rat, read-out: AUC) was in the range of 1000 to 10000 ng·h/mL.
Turning to `Cc1cc(N)nc(C)c1CNC(=O)c1ccn(Cc2ccc3ncc(Cl)cc3c2)n1` [Example 1, N-((6-amino-2,4-dimethylpyridin-3-yl)methyl)-1-((3-chloroquinolin-6-yl)methyl)-1H-pyrazole-3-carboxamide], the negative logarithm of the EC50 (pEC50) in series [2] (setting [4]) was over 7.00. In addition, the AUC in series [3] (rat, read-out: AUC) was in the range of 100 to 1000 ng·h/mL.
